Data on eight compounds can be found in patent US10004701B2, “Methods and compositions for treating infection” (UNIVERSITY OF ROCHESTER, priority 2012, dated 2018).

Assay in all cases: AK assay 384-well format, Prestwick library screening
One assay deals with E. faecium. In kind it is cell-based, Enterococcus faecium. The conditions noted are these: 50 μM final drug concentration; for fold induction at 50 µM: Enterococcus faecium, 3 h.
Assay [1] concerns S. aureus strain USA300-0114. In kind it is cell-based, Staphylococcus aureus. The settings on record: 50 μM final drug concentration; for fold induction at 50 µM: Staphylococcus aureus, USA300, 3 h.
The next assay concerns K. pneumoniae. The assay is classed as cell-based, Klebsiella pneumoniae. The conditions noted are these: 50 μM final drug concentration; for fold induction at 50 µM: Klebsiella pneumoniae, 3 h.
Assay [2] has as its system A. baumannii strain 98-37-09. The assay is classed as cell-based, Acinetobacter baumannii. The settings on record: 50 μM final drug concentration; for fold induction at 50 µM: Acinetobacter baumannii, 983709, 3 h.
The test system of another assay is E. cloacae. The assay is classed as cell-based, Enterobacter cloacae. The conditions noted are these: 50 μM final drug concentration; for fold induction at 50 µM: Enterobacter cloacae, 3 h.
The test system of a further assay is E. coli. In kind it is cell-based, Escherichia coli. The conditions noted are these: 50 μM final drug concentration; for fold induction at 50 µM: Escherichia coli, 3 h.
A further assay has as its system P. aeruginosa. The assay is classed as cell-based, Pseudomonas aeruginosa. The settings on record: 50 μM final drug concentration; for fold induction at 50 µM: Pseudomonas aeruginosa, 3 h.
Where [3] appears, read: planktonic E. faecium, 384-well, cutoff for positive-scoring molecules 3-fold increase, read-out: AK-based Prestwick Library Screening Results: E. faecium (increase in extracellular AK activity).
Where [4] appears, read: planktonic S. aureus, 384-well, cutoff for positive-scoring molecules 3-fold increase, read-out: AK-based Prestwick Library Screening Results: S. aureus (increase in extracellular AK activity).
Where [5] appears, read: planktonic K. pneumoniae, 384-well, cutoff for positive-scoring molecules 3-fold increase, read-out: AK-based Prestwick Library Screening Results: K. pneumoniae (increase in extracellular AK activity).
[6] abbreviates: planktonic A. baumannii, 384-well, cutoff for positive-scoring molecules 3-fold increase, read-out: AK-based Prestwick Library Screening Results: A. baumannii (increase in extracellular AK activity).
Setting [7] is: planktonic E. cloacae, 384-well, cutoff for positive-scoring molecules 3-fold increase, read-out: AK-based Prestwick Library Screening Results: E. cloacae (increase in extracellular AK activity).
[8] abbreviates: planktonic E. coli, 384-well, cutoff for positive-scoring molecules 3-fold increase, read-out: AK-based Prestwick Library Screening Results: E. coli (increase in extracellular AK activity).
Setting [9] is: planktonic P. aeruginosa, 384-well, cutoff for positive-scoring molecules 3-fold increase, read-out: AK-based Prestwick Library Screening Results: P. aeruginosa (increase in extracellular AK activity).
Where [10] appears, read: planktonic, cutoff for positive 3-fold increase.
The mark [11] stands for this setting: planktonic, cutoff for positive-scoring molecules 3-fold increase.

Counter-ions that a name gives are not always drawn. Like-named read-outs stand apart in the source and are kept apart here.

Take `CO[C@H]1C[C@H](O[C@H]2[C@H](C)[C@@H](O[C@@H]3O[C@H](C)C[C@H](N(C)C)[C@H]3O)[C@@H](C)C[C@@]3(CO3)C(=O)[C@H](C)[C@@H](O)[C@@H](C)[C@@H](C)OC(=O)[C@@H]2C)O[C@@H](C)[C@@H]1O` [Oleandomycin phosphate]: the fold induction at 50 µM with E. faecium (setting [3]) stood at 1; in assay [1] (setting [4]), 3.6; with K. pneumoniae (setting [5]), 1; in assay [2] (setting [6]), 1.1; with E. cloacae (setting [7]), 1.6; with E. coli (setting [8]), 1.1. Moreover, the fold induction at 50 µM with P. aeruginosa (setting [9]) is 1.
As for `O=C(O)/C=C/c1ccc(Cn2ccnc2)cc1` [Ozagrel hydrochloride], the fold induction at 50 µM came out at 0.9 in the assay with E. faecium (planktonic E. faecium, positive cutoff 3-fold increase, read-out: AK-based Prestwick library screening result, E. faecium (fold increase in extracellular AK activity)); 0.5 in assay [1] (planktonic S. aureus, positive cutoff 3-fold increase, read-out: AK-based Prestwick library screening result, S. aureus (fold increase in extracellular AK activity)); 0.5 in the assay with K. pneumoniae (planktonic K. pneumoniae, positive cutoff 3-fold increase, read-out: AK-based Prestwick library screening result, K. pneumoniae (fold increase in extracellular AK activity)); 0.7 in assay [2] (planktonic A. baumannii, positive cutoff 3-fold increase, read-out: AK-based Prestwick library screening result, A. baumannii (fold increase in extracellular AK activity)); 0.9 with E. cloacae (planktonic E. cloacae, positive cutoff 3-fold increase, read-out: AK-based Prestwick library screening result, E. cloacae (fold increase in extracellular AK activity)); 0.6 with E. coli (planktonic E. coli, positive cutoff 3-fold increase, read-out: AK-based Prestwick library screening result, E. coli (fold increase in extracellular AK activity)). In addition, in the assay on P. aeruginosa (planktonic P. aeruginosa, positive cutoff 3-fold increase, read-out: AK-based Prestwick library screening result, P. aeruginosa (fold increase in extracellular AK activity)), the fold induction at 50 µM was found to be 0.6.
Regarding `COc1ccc2[nH]c([S+]([O-])Cc3ncc(C)c(OC)c3C)nc2c1` (centres unmarked) [Omeprazole], the fold induction at 50 µM was determined as 0.8 with E. faecium (planktonic E. faecium, cutoff for positive-scoring molecules 3-fold increase, read-out: AK-based Prestwick Library Screening Results, E. faecium (increase in extracellular AK activity)); 0.2 in assay [1] (planktonic S. aureus, cutoff for positive-scoring molecules 3-fold increase, read-out: AK-based Prestwick Library Screening Results, S. aureus (increase in extracellular AK activity)); 0.6 in the assay with K. pneumoniae (planktonic K. pneumoniae, cutoff for positive-scoring molecules 3-fold increase, read-out: AK-based Prestwick Library Screening Results, K. pneumoniae (increase in extracellular AK activity)); 0.8 in assay [2] (planktonic A. baumannii, cutoff for positive-scoring molecules 3-fold increase, read-out: AK-based Prestwick Library Screening Results, A. baumannii (increase in extracellular AK activity)); 0.8 in the assay on E. cloacae (planktonic E. cloacae, cutoff for positive-scoring molecules 3-fold increase, read-out: AK-based Prestwick Library Screening Results, E. cloacae (increase in extracellular AK activity)); 0.7 in the assay with E. coli (planktonic E. coli, cutoff for positive-scoring molecules 3-fold increase, read-out: AK-based Prestwick Library Screening Results, E. coli (increase in extracellular AK activity)). For the same compound, in the assay with P. aeruginosa (planktonic P. aeruginosa, cutoff for positive-scoring molecules 3-fold increase, read-out: AK-based Prestwick Library Screening Results, P. aeruginosa (increase in extracellular AK activity)), the fold induction at 50 µM turned out to be 0.6.
Take `Nc1ccc(S(=O)(=O)Nc2ccccn2)cc1` [Sulfapyridine]: the fold induction at 50 µM stood at 1 in the assay with E. faecium (planktonic, […], read-out: AK-based Prestwick Library Screening Results, E. faecium (fold increase in extracellular AK activity)); 1.4 in assay [1] (planktonic, […], read-out: AK-based Prestwick Library Screening Results, S. aureus (fold increase in extracellular AK activity)); 0.9 with K. pneumoniae (planktonic, […], read-out: AK-based Prestwick Library Screening Results, K. pneumoniae (fold increase in extracellular AK activity)); 2.2 in assay [2] (planktonic, […], read-out: AK-based Prestwick Library Screening Results, A. baumannii (fold increase in extracellular AK activity)); 1.6 in the assay on E. cloacae (planktonic, […], read-out: AK-based Prestwick Library Screening Results, E. cloacae (fold increase in extracellular AK activity)); 1.2 with E. coli (planktonic, […], read-out: AK-based Prestwick Library Screening Results, E. coli (fold increase in extracellular AK activity)). Also, the fold induction at 50 µM in the assay with P. aeruginosa (planktonic, […], read-out: AK-based Prestwick Library Screening Results, P. aeruginosa (fold increase in extracellular AK activity)) is 1.1.
Consider `CCN(CC)CCOc1ccc(C(=C(Cl)c2ccccc2)c2ccccc2)cc1.O=C(O)CC(O)(CC(=O)O)C(=O)O` [Clomiphene citrate (Z,E)], for which the “AK-based Prestwick Library Screening Results, E. faecium (fold increase in extracellular AK activity)” value in the assay on E. faecium (setting [10]) is 4.4. Besides, the “AK-based Prestwick Library Screening Results, S. aureus (fold increase in extracellular AK activity)” value in assay [1] (setting [10]) came to 2.0. Also, the “AK-based Prestwick Library Screening Results, K. pneumoniae (fold increase in extracellular AK activity)” value in the assay with K. pneumoniae (setting [10]) is 1.6. Besides, the “AK-based Prestwick Library Screening Results, A. baumannii (fold increase in extracellular AK activity)” value in assay [2] (setting [10]) is 5.4. Besides, in the assay on E. cloacae (setting [10]), the “AK-based Prestwick Library Screening Results, E. cloacae (fold increase in extracellular AK activity)” value stood at 1.9. Also, the “AK-based Prestwick Library Screening Results, E. coli (fold increase in extracellular AK activity)” value with E. coli (setting [10]) is given as 1.8. Besides, in the assay on P. aeruginosa (setting [10]), the “AK-based Prestwick Library Screening Results, P. aeruginosa (fold increase in extracellular AK activity)” value turned out to be 1.4.
As for `C[C@H]1[C@H](NC(=O)/C(=N\OC(C)(C)C(=O)O)c2csc(N)n2)C(=O)N1S(=O)(=O)O` [Aztreonam], the fold induction at 50 µM is 1 in the assay on E. faecium (384-well format, cutoff for positive-scoring molecules 3-fold increase, read-out: AK-based Prestwick Library Screening Results, E. faecium (increase in extracellular AK activity)); 0.6 in assay [1] (384-well format, cutoff for positive-scoring molecules 3-fold increase, read-out: AK-based Prestwick Library Screening Results, S. aureus (increase in extracellular AK activity)); 2.6 in the assay with K. pneumoniae (384-well format, cutoff for positive-scoring molecules 3-fold increase, read-out: AK-based Prestwick Library Screening Results, K. pneumoniae (increase in extracellular AK activity)); 5.4 in assay [2] (384-well format, cutoff for positive-scoring molecules 3-fold increase, read-out: AK-based Prestwick Library Screening Results, A. baumannii (increase in extracellular AK activity)); 18.4 in the assay with E. cloacae (384-well format, cutoff for positive-scoring molecules 3-fold increase, read-out: AK-based Prestwick Library Screening Results, E. cloacae (increase in extracellular AK activity)); 15.9 with E. coli (384-well format, cutoff for positive-scoring molecules 3-fold increase, read-out: AK-based Prestwick Library Screening Results, E. coli (increase in extracellular AK activity)). Further, the fold induction at 50 µM in the assay with P. aeruginosa (384-well format, cutoff for positive-scoring molecules 3-fold increase, read-out: AK-based Prestwick Library Screening Results, P. aeruginosa (increase in extracellular AK activity)) was 9.1.
Regarding `Clc1ccc(COC(Cn2ccnc2)c2ccc(Cl)cc2Cl)cc1` (centres unmarked) [Econazole nitrate], the fold induction at 50 µM worked out at 1.5 in the assay on E. faecium (setting [3]); 3.7 in assay [1] (setting [4]); 1.3 in the assay with K. pneumoniae (setting [5]); 6.7 in assay [2] (setting [6]); 1.3 in the assay with E. cloacae (setting [7]); 1.3 in the assay on E. coli (setting [8]). Besides, the fold induction at 50 µM in the assay on P. aeruginosa (setting [9]) came out at 1.3.
Consider `COCCc1ccc(OCC(O)CNC(C)C)cc1.COCCc1ccc(OCC(O)CNC(C)C)cc1.O=C(O)C(O)C(O)C(=O)O` (racemic) [Metoprolol-(+,−) (+)-tartrate salt], for which, in the assay on E. faecium (setting [11]), the “AK-based Prestwick Library Screening Results, E. faecium (fold increase in extracellular AK activity)” value is listed as 0.9. Besides, the “AK-based Prestwick Library Screening Results, S. aureus (fold increase in extracellular AK activity)” value in assay [1] (setting [11]) amounted to 0.6. In the assay with K. pneumoniae (setting [11]), the “AK-based Prestwick Library Screening Results, K. pneumoniae (fold increase in extracellular AK activity)” value is reported as 0.5. Further, the “AK-based Prestwick Library Screening Results, A. baumannii (fold increase in extracellular AK activity)” value in assay [2] (setting [11]) amounted to 0.7. Besides, the “AK-based Prestwick Library Screening Results, E. cloacae (fold increase in extracellular AK activity)” value with E. cloacae (setting [11]) was 7.0. Also, the “AK-based Prestwick Library Screening Results, E. coli (fold increase in extracellular AK activity)” value with E. coli (setting [11]) came out at 0.6. For the same compound, the “AK-based Prestwick Library Screening Results, P. aeruginosa (fold increase in extracellular AK activity)” value in the assay with P. aeruginosa (setting [11]) amounted to 0.7.
